PMC2698043 (Journal of medicinal chemistry, 2009)

What was measured:
[1] = molecular target: T1, human PNP (Homo sapiens, UniProt P00491); test: biochemical
[2] = molecular target: blood PNP (Mus musculus, UniProt P23492); conditions: mice
[3] = molecular target: T1, human PNP

T1 sequence (P00491 whole entry): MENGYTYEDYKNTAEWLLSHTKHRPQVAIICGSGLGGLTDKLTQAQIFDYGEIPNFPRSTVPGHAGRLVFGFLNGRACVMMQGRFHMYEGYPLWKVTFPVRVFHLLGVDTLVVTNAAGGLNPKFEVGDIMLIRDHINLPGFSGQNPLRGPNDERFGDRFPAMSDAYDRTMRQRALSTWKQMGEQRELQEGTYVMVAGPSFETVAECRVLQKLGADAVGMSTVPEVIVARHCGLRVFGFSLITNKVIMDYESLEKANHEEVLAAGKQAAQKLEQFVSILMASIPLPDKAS
Sequence of blood PNP (P23492 whole entry): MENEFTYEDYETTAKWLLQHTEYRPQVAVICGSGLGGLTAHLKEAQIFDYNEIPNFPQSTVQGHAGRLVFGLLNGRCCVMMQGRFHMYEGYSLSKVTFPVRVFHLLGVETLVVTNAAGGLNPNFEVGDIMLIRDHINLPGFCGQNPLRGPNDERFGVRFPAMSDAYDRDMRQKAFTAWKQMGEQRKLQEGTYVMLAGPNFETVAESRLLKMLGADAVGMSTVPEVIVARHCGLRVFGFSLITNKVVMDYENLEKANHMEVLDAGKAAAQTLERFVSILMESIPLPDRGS

| Compound | Kd [1] | time to complete inhibition of PNP catalytic activity ([2]; single 50 nmol dose, i.p. injection) | inhibition of blood PNP catalytic activity ([2]; single oral dose, for a period of 25 days) | times more active inhibitor than 9-deazahypoxanthine analogue 11 [3] |
| --- | --- | --- | --- | --- |
| O=c1[nH]cnc2c(CNC(CO)CO)c[nH]c12 [Compound 10] | 5.2 pM | ≤ 20 min | > 50% |  |
| Nc1nc2c(CN[C@H](CO)[C@H](O)CO)c[nH]c2c(=O)[nH]1 [Compound 9, 2-Amino-7-({[(2R,3S)-1,3,4-trihydroxybutan-2-yl]amino}methyl)-3,5-dihydro-4Hpyrrolo[3,2-d]pyrimidin-4-one] |  |  |  | 2 – 3 times |
| Nc1nc2c(CNC(CO)CO)c[nH]c2c(=O)[nH]1 [Compound 8, 2-Amino-7-{[(1,3-dihydroxypropan-2-yl)amino]methyl}-3,5-dihydro-4H-pyrrolo[3,2-d]pyrimidin-4-one] | 2.1 pM |  |  |  |
